Results reported in patent publication US5324648A, “Substituted isocoumarins as serine protease inhibitors and anti-inflammatory agents” (Georgia Tech Research Corporation, priority 1992, dated 1994).
Read-outs that look alike come from different tables or passages of the source.

Legend:
Assay type in all cases: biochemical
Cl^- s = target: T1, Cl^- s (Homo sapiens, UniProt P09871); assay: Inactivation rate of complement protein C1s; details: Table II; pH 7.5, 25° C; [I] 0.8 to 44 μM; read-out: kobs/[I]
T1 construct: Cl^- s^e
T1 sequence (P09871 438-688 limits assumed): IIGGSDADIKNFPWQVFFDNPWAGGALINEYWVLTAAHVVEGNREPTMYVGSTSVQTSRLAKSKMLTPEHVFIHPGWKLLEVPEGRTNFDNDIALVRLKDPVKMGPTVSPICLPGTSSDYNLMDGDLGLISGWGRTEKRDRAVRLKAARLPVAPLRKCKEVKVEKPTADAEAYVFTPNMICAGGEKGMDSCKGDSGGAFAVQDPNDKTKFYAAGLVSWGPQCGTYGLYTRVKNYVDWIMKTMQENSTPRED
T1 sequence (P09871 16-437 partner limits assumed): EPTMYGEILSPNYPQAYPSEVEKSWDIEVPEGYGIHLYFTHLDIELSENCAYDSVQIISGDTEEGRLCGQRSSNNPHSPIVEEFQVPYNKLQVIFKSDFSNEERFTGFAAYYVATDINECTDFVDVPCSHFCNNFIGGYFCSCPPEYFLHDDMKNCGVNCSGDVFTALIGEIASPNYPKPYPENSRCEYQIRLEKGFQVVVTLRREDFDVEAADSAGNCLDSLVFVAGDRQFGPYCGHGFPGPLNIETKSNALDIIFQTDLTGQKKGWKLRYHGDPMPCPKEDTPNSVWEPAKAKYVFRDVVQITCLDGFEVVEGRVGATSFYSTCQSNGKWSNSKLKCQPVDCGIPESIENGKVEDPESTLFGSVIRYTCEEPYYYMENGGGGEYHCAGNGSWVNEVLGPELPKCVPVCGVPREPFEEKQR
Procedure: (§1) Inactivation rates of serine proteases by substituted isocoumarins were measured by the incubation method. An aliquot of inhibitor (25 or 50 μl) in Me2 SO was added to a buffered enzyme solution (0.01-2.3 μM) to initiate the inactivation. Aliquots (50 μl) were withdrawn at various intervals and the residual enzymatic activity was measured. Me2 SO concentration in the reaction mixture was 8-12% (v/v). 0.1 Hepes, 0.01M CaCl2, pH 7.5 buffer was utilized for trypsin and coagulation enzymes. 0.1M Hepes, 0.5M NaCl, pH 7.5 was utilized for other serine proteases. The inhibitor concentrations are shown in all the tables. Peptide thioesters or peptide nitroanilides with appropriate sequence were used as substrates for various serine proteases. All peptide thioester hydrolysis rates were measured with assay mixtures containing 4,4'-dithiodipyridine (ε324 =19800M^-1 cm^-1; Grasetti & Murray, Arch. Biochem. Biophys. 119, pp 41-49 (1967)). Peptide 4-nitroanilide nitroanilide hydrolysis was measured at 410 nm (ε410 =8800M^-1 cm^-1; Erlanger et al., Arch. Biochem. Biophys. 95, pp 271-278 (1961)). First order inactivation rate constant (kobs) were obtained from plots of ln (vt /vo) vs time, and the correlation coefficients were greater than 0.98.
(§2) ^a Conditions were 0.1M Hepes, 0.5M NaCl, pH 7.5, 8-10% Me2 SO
(§3) and 25° C. Inactivation rates were measured by incubation method.
(§4) Enzyme concentrations were as follows: protein D, 1-9 μM; C2, 0.7-1
(§5) μM; B, 1.8 μM; Bb, 0.3-0.8 μM; Cl^- s, 0.07 μM; Cl^-

mouse granzyme A = target: T2, mouse granzyme A (Mus musculus, UniProt P11032); assay: Inactivation rate of mouse granzyme A; details: Table VII; pH 7.5, 25° C; [I] 0.4 to 45 μM; read-out: kobs/[I]
T2 construct: mouse cytotoxic lymphocyte granzyme A; endogenous in cells; host or cells: mouse cytotoxic lymphocytes
T2 sequence (P11032 29-260): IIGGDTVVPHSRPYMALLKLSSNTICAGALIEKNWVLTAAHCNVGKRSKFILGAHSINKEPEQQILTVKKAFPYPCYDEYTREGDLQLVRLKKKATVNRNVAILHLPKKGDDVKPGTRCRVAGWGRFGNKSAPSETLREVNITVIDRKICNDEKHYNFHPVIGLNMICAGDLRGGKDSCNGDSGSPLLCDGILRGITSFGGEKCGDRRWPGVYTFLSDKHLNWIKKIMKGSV
Procedure: as §1
^a Inactivation rates were measured at 0.1M Hepes, 0.01M CaCl2,
pH 7.5, 8% Me2 SO and 25° C. by incubation method. ZArg-SBzl
(74-85 μM) was used as the substrate to monitor the residual enzymatic

complement protein D = complement protein D (Homo sapiens, UniProt P00746); assay: Inactivation rate of complement protein D; details: Table II; pH 7.5, 25° C; [I] 0.05 to 1.29 mM; read-out: kobs/[I]
Procedure: as §1, §2, §3, §4, §5

cathepsin G = target: T3, cathepsin G (Homo sapiens, UniProt P08311); assay: Inactivation of cathepsin G; details: for kinact/KI: pH 7.5, 25° C, read-out: kobs/[I]
T3 construct: from tissue; host or cells: human leukocytes
T3 sequence (P08311 21-255): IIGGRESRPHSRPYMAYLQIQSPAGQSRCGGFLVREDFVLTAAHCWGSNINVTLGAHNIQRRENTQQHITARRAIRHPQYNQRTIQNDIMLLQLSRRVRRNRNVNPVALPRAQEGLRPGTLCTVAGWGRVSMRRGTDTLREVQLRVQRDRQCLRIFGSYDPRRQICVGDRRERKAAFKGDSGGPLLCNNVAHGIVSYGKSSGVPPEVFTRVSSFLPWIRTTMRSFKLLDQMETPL

bovine factor Xa = target: T4, bovine factor Xa (Bos taurus, UniProt P00743); assay: Inactivation rate of bovine factor Xa; details: Table I; pH 7.5, 25° C; [I] 0.4 to 310 μM; read-out: kobs/[I]
T4 construct: bovine factor Xa

human plasma kallikrein = target: T5, human plasma kallikrein (Homo sapiens, UniProt P03952); assay: Inactivation rate of human plasma kallikrein; details: Table I, read-out: kobs/[I]
T5 construct: human plasma kallikrein; from tissue; host or cells: human plasma (from the name)
Procedure: as §1
^a Conditions were as 0.1M Hepes, 0.01M CaCl2, pH 7.5 and 8-12%
Me2 SO and 25° C. Rate constants were measured by incubation
method unless otherwise noted. An aliquot of inhibitor was added to an
enzyme solution and aliquots removed with time and assayed for remaining
enzymatic activity. Firstorder rate constants, kobs were obtained
from the plots of ln(vt /vo) versus time.

[1] = pH 7.5, based on residual activity at 0.2 min
[2] = pH 7.5, 25° C, [I] 3 to 330 μM (footnote g)

complement protein D, sequence (P00746 26-253): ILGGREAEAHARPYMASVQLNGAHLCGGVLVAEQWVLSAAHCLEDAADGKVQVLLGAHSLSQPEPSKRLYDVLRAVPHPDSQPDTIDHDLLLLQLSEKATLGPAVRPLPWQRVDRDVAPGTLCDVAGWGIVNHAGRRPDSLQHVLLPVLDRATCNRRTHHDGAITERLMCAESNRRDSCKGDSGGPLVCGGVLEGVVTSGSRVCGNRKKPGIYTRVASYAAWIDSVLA
T4 sequence (P00743 234-492 limits assumed): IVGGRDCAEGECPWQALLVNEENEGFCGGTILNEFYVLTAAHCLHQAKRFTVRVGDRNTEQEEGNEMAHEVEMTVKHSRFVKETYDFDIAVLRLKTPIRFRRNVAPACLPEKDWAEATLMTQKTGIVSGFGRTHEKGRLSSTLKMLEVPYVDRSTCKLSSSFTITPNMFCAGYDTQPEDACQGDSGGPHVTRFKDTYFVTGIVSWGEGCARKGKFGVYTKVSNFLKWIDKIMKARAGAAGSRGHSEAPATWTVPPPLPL
T4 sequence (P00743 41-180 partner limits assumed): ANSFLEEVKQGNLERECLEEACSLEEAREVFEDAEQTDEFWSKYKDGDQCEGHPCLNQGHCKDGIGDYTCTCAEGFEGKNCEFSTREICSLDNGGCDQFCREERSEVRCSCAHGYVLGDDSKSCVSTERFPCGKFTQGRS
T5 sequence (P03952 391-638 limits assumed): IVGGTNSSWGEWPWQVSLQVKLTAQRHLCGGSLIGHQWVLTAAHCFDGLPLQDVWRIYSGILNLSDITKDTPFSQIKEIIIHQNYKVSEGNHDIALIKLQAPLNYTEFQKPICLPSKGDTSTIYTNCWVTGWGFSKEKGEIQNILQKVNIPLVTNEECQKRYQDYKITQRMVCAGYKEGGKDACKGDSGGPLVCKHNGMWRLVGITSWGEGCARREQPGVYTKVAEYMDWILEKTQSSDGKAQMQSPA
T5 sequence (P03952 20-390 partner limits assumed): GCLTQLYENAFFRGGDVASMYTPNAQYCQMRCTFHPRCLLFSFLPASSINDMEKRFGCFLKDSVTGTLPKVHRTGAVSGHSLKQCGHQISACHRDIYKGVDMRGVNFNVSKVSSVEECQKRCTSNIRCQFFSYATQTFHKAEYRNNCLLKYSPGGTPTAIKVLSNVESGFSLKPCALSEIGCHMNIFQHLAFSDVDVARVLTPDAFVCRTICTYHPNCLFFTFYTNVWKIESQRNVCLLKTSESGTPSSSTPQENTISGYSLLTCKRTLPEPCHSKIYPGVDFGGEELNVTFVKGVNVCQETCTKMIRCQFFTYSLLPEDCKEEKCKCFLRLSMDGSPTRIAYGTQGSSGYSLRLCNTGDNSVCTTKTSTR

Row | Compound | kinact/KI (Cl^- s) [M⁻¹ s⁻¹] | kinact/KI (mouse granzyme A) [M⁻¹ s⁻¹] | kinact/KI (complement protein D) [M⁻¹ s⁻¹] | kinact/KI (cathepsin G; Table IV, [I] 0.002 to 0.35 mM) [M⁻¹ s⁻¹] | kinact/KI (bovine factor Xa) [M⁻¹ s⁻¹] | kinact/KI (human plasma kallikrein; [1]) [M⁻¹ s⁻¹] | kinact/KI (human plasma kallikrein; [2]) [M⁻¹ s⁻¹] | inhibition at 490 µM (cathepsin G; Table IV, not time dependent, at 0.49 mM) [%] | kinact/KI (human plasma kallikrein; pH 7.5, progress curve method) [M⁻¹ s⁻¹] | kinact/KI (cathepsin G; Table X, [I] 33-46 μM) [M⁻¹ s⁻¹]
1 | O=c1oc(Cl)c(Cl)c2ccccc12 [3,4-dichloroisocoumarin, reference compound] | 170 | 50 | 192 |  |  |  |  |  |  | 
2 | N=C(N)SCCOc1oc(=O)c2ccccc2c1Cl [3-(2-isothiureidoethoxy)-4-chloroisocoumarin] |  |  | 61 | 110 | 5600 | 280000 |  |  |  | 
3 | NCCCOc1oc(=O)c2ccccc2c1Cl [3-(3-aminopropoxy)-4-chloroisocoumarin] |  | 770 |  | 260 | 160 |  | 1400 |  |  | 
4 | N=C(N)SCCCOc1oc(=O)c2ccccc2c1Cl [3-(3-isothiureidopropoxy)-4-chloroisocoumarin] | 130000 | 17500 | 145 | 83 | 220 | > 110000 |  |  |  | 
5 | N=C(N)SCCCOc1oc(=O)c2cc(N)ccc2c1Cl [7-amino-4-chloro-3-(3-isothiureidopropoxy)isocoumarin] | 23000 | 3000 | 55 | 36 | 1640 |  | 1100 |  |  | 
6 | CCOc1oc(=O)c2cc(NC(=N)N)ccc2c1Cl [7-guanidino-3-ethoxy-4-chloroisocoumarin, 7-guanidino-4-chloro-3-ethoxyisocoumarin] | 690 | 26200 | 193 | 84000 | 26700 | > 500000 |  |  |  | 
7 | COc1cc2ccc(NC(=N)N)cc2c(=O)o1 [7-guanidino-3-methoxyisocoumarin] |  |  |  |  | 460 |  | 13000 | 81 |  | 
8 | N=C(N)Nc1ccc2c(Cl)c(OCCc3ccccc3)oc(=O)c2c1 [7-guanidino-4-chloro-3-(2-phenylethoxy)isocoumarin] | 90 | 6400 | 92 | 66000 | 96000 | > 270000 |  |  |  | 
9 | COc1oc(=O)c2cc(NC(=N)N)ccc2c1Cl [7-guanidino-4-chloro-3-methoxyisocoumarin] | 660 | 15000 | 252 | 11000 | 3100 |  |  |  | 240000 | 
10 | N=C(N)SCCOc1oc(=O)c2cc(NC(=O)Nc3ccccc3)ccc2c1Cl [PhNHCONH-CiTEtOIC, 7-(phenylcarbamoylamino)-4-chloro-3-(2-isothiureidoethoxy)isocoumarin] |  |  |  |  |  |  |  |  |  | 100
